According to ChEMBL document CHEMBL4028801, “A multifactorial approach to hepatobiliary transporter assessment enables improved therapeutic compound development” (Toxicol Sci, 2013):
Values belong to the compound of their own block, whether it stands above or below them.

Tests used:
[1] = Ratio of drug concentration at steady state in human at 600 mg administered twice weekly followed by 600 mg administered once in a week measured after 84 hrs to IC50 for human MRP4 overexpressed in Sf9 insect cells; format: ADME; conditions: in vivo
Bile salt export pump = Bile salt export pump (Homo sapiens, UniProt O95342); assay: Inhibition of human BSEP overexpressed in Sf9 cell membrane vesicles assessed as uptake of [3H]-taurocholate in presence of ATP measured after 15 to 20 mins by membrane vesicle transport assay; format: ADME, cell-based
Bile salt export pump, sequence (O95342 whole entry): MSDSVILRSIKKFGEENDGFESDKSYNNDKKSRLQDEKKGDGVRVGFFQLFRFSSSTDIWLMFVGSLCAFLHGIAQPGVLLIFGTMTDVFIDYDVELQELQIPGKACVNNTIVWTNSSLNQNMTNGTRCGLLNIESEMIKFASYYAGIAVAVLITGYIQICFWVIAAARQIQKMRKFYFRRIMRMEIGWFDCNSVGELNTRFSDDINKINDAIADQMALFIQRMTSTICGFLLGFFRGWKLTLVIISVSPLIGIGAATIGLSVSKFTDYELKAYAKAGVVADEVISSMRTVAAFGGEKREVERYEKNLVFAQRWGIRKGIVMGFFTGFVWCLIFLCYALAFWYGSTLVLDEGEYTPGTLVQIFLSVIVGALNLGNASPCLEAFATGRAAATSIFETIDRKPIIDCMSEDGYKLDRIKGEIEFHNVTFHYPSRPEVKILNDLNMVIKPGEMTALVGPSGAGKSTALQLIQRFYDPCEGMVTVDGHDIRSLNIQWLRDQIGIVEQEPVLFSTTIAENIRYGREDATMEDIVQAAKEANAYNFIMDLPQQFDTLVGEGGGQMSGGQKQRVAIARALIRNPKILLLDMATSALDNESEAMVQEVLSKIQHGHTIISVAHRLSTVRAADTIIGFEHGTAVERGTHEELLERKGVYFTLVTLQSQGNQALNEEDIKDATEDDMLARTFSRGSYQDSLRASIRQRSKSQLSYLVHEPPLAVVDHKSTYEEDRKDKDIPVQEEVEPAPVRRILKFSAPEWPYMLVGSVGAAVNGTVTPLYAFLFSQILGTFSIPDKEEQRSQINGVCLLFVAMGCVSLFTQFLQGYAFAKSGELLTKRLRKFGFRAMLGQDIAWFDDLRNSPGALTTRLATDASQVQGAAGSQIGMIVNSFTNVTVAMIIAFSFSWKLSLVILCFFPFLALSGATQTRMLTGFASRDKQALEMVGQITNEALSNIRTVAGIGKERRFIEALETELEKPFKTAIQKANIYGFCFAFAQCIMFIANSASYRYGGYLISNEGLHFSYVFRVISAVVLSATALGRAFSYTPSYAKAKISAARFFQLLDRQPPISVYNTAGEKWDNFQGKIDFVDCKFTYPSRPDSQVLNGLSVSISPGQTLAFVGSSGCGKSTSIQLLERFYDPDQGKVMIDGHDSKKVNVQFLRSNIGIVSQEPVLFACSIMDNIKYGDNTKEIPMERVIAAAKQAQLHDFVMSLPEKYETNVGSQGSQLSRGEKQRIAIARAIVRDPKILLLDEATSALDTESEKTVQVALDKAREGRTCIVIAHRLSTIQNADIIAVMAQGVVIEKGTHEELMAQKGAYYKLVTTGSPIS

[2] = biological target: ATP-binding cassette sub-family C member 3 (Homo sapiens, UniProt O15438); assay: Inhibition of human MRP3 overexpressed in Sf9 insect cell membrane vesicles assessed as uptake of [3H]-estradiol-17beta-D-glucuronide in presence of ATP and GSH measured after 10 mins by membrane vesicle transport assay; format: ADME, cell-based
ATP-binding cassette sub-family C member 3, sequence (O15438 whole entry): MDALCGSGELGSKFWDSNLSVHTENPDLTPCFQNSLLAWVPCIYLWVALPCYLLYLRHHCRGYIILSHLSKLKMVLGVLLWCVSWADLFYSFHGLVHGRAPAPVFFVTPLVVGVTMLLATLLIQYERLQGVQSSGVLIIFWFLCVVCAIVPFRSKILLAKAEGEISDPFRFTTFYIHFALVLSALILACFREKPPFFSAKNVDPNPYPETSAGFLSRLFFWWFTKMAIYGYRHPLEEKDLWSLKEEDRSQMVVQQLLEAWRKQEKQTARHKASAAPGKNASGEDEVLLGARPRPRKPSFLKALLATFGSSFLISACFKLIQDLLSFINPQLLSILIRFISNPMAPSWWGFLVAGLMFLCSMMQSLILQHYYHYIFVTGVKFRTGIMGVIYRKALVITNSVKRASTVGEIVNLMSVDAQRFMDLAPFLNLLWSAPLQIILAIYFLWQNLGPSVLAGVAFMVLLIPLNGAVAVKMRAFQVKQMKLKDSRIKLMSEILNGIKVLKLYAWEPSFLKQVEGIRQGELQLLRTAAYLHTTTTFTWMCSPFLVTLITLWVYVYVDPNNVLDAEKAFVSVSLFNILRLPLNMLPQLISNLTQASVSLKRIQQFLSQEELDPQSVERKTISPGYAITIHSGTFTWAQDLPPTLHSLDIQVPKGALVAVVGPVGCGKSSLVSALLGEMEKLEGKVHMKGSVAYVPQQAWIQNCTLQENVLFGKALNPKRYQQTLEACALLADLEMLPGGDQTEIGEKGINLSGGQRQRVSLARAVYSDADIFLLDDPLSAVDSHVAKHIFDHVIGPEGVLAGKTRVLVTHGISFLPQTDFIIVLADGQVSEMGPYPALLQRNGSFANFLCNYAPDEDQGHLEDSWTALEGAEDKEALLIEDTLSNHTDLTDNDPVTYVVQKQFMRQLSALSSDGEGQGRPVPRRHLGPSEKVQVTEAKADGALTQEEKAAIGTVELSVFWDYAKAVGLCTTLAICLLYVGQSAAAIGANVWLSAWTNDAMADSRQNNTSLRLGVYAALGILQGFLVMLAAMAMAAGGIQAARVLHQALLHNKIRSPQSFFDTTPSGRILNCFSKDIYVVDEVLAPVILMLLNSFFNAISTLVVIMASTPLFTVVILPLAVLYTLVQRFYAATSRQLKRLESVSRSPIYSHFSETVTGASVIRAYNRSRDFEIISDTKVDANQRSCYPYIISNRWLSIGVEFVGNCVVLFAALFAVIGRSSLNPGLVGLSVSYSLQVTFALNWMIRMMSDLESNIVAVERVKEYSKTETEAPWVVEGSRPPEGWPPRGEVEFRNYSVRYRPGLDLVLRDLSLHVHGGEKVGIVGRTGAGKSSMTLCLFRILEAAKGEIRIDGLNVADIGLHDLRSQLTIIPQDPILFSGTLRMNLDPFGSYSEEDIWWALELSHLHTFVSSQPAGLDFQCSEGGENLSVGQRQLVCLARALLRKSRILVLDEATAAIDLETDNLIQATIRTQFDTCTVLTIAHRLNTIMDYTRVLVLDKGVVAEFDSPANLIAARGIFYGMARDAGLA

[3] = Ratio of drug concentration at steady state in human at 600 mg administered twice weekly followed by 600 mg administered once in a week measured after 84 hrs to IC50 for human MRP2 overexpressed in Sf9 insect cells; format: ADME; conditions: in vivo
[4] = AUC in human at 600 mg administered twice weekly followed by 600 mg administered once in a week measured after 84 hrs; format: ADME; parameters: dose 600 mg, time < 84 hr; conditions: in vivo
[5] = biological target: T1, ATP-binding cassette sub-family C member 4 (Homo sapiens, UniProt O15439); assay: Inhibition of human MRP4 overexpressed in Sf9 cell membrane vesicles assessed as uptake of [3H]-estradiol-17beta-D-glucuronide in presence of ATP and GSH measured after 20 mins by membrane vesicle transport assay; format: ADME, cell-based
T1 sequence (O15439 whole entry): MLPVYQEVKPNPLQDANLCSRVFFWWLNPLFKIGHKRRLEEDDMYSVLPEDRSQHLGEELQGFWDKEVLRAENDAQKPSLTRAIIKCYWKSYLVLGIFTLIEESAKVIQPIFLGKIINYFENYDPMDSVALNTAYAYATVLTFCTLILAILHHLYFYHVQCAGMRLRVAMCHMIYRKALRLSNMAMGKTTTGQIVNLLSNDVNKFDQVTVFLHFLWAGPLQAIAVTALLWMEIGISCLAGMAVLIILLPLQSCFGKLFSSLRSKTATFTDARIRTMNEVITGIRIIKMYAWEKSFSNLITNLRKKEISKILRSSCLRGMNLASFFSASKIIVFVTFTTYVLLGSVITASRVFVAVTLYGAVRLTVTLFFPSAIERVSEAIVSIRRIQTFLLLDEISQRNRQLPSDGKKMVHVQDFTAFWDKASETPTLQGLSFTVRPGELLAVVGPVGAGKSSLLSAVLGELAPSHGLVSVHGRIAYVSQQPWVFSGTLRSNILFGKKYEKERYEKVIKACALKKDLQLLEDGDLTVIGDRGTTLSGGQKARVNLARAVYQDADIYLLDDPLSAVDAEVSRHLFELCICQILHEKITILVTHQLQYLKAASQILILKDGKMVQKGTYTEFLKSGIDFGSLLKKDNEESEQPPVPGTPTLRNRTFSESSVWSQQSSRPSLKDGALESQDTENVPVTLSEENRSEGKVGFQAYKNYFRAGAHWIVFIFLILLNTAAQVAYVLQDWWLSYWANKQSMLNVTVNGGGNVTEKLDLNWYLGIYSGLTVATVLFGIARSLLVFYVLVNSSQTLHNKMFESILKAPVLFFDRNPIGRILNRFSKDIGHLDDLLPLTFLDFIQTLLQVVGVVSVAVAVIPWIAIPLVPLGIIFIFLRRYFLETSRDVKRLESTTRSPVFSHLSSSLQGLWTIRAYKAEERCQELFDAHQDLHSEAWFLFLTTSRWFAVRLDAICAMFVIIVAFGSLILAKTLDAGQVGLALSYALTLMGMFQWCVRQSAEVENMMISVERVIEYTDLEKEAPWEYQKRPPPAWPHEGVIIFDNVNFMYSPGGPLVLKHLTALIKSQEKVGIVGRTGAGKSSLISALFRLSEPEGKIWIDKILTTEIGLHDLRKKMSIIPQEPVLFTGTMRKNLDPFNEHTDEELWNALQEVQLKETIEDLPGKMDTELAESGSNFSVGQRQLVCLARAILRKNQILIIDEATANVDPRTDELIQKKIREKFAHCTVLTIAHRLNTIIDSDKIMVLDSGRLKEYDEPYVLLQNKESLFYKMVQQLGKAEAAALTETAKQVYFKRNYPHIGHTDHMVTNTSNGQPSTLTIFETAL

[6] = Ratio of drug concentration at steady state in human at 600 mg administered twice weekly followed by 600 mg administered once in a week measured after 84 hrs to IC50 for human BSEP overexpressed in Sf9 insect cells; format: ADME; conditions: in vivo
[7] = biological target: ATP-binding cassette sub-family C member 2 (Homo sapiens, UniProt Q92887); assay: Inhibition of human MRP2 overexpressed in Sf9 cell membrane vesicles assessed as uptake of [3H]-estradiol-17beta-D-glucuronide in presence of ATP and GSH measured after 20 mins by membrane vesicle transport assay
ATP-binding cassette sub-family C member 2, sequence (Q92887 whole entry): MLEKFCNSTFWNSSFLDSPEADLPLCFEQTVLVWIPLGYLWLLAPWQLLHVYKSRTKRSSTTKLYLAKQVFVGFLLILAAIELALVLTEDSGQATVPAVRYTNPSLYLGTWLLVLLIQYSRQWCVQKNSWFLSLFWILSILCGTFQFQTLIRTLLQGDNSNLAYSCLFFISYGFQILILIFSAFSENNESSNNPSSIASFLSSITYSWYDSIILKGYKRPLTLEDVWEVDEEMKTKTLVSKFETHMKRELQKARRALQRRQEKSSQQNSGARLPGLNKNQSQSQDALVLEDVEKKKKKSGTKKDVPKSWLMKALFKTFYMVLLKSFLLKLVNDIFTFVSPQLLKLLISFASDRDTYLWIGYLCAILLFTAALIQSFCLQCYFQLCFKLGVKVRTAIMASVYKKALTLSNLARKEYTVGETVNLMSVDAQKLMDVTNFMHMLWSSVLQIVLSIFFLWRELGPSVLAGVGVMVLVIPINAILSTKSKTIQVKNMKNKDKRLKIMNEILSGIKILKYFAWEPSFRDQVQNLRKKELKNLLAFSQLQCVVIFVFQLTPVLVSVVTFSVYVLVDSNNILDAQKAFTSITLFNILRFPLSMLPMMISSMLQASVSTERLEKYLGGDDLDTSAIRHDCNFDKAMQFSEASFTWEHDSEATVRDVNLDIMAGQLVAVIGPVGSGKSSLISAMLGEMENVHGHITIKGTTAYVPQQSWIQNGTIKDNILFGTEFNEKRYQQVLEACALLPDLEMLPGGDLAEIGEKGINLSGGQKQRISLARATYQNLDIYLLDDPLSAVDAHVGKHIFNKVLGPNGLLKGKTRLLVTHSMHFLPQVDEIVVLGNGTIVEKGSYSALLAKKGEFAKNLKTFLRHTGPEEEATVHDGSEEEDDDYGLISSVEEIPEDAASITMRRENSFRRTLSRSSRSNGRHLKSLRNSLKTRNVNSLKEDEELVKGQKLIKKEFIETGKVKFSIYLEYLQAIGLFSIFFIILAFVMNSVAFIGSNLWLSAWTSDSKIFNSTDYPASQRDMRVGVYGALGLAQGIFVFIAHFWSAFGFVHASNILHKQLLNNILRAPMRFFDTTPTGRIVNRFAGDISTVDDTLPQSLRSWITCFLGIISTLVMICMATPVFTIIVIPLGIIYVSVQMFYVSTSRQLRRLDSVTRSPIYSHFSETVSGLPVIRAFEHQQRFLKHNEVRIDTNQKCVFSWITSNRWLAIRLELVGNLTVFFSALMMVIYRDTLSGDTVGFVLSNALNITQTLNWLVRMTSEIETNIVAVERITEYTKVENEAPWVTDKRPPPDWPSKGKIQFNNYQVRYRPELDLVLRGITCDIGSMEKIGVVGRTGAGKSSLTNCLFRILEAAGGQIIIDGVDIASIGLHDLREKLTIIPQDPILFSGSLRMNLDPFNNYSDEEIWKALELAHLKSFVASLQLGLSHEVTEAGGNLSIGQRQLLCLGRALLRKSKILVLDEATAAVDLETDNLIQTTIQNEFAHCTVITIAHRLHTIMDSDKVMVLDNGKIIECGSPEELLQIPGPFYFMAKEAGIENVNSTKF

[8] = Drug concentration at steady state in human at 600 mg administered twice weekly followed by 600 mg administered once in a week measured after 84 hrs; format: ADME; conditions: in vivo, read-out: Css
[9] = Ratio of drug concentration at steady state in human at 600 mg administered twice weekly followed by 600 mg administered once in a week measured after 84 hrs to IC50 for human MRP3 overexpressed in Sf9 insect cells; format: ADME; conditions: in vivo
[10] = AUC in human at 100 to 200 mg, po TID after 8 hrs; format: ADME, organism-based; conditions: in vivo
[11] = Ratio of drug concentration at steady state in human at 100 to 200 mg, po TID after 8 hrs to IC50 for human MRP3 overexpressed in Sf9 insect cells; format: ADME, organism-based; conditions: in vivo
[12] = Drug concentration at steady state in human at 100 to 200 mg, po TID after 8 hrs; format: ADME, organism-based; conditions: in vivo, read-out: Css
[13] = Ratio of drug concentration at steady state in human at 100 to 200 mg, po TID after 8 hrs to IC50 for human BSEP overexpressed in Sf9 insect cells; format: ADME, organism-based; conditions: in vivo
[14] = Ratio of drug concentration at steady state in human at 100 to 200 mg, po TID after 8 hrs to IC50 for human MRP4 overexpressed in Sf9 insect cells; format: ADME, organism-based; conditions: in vivo
[15] = Ratio of drug concentration at steady state in human at 400 to 800 mg, po QD used as formulation with ritonavir measured after 24 hrs to IC50 for human MRP3 overexpressed in Sf9 insect cells; format: ADME, organism-based; conditions: in vivo
[16] = AUC in human at 400 to 800 mg, po QD used as formulation with ritonavir measured after 24 hrs; format: ADME, organism-based; conditions: in vivo
[17] = Ratio of drug concentration at steady state in human at 400 to 800 mg, po QD used as formulation with ritonavir measured after 24 hrs to IC50 for human MRP4 overexpressed in Sf9 insect cells; format: ADME, organism-based; conditions: in vivo
[18] = Ratio of drug concentration at steady state in human at 400 to 800 mg, po QD used as formulation with ritonavir measured after 24 hrs to IC50 for human BSEP overexpressed in Sf9 insect cells; format: ADME, organism-based; conditions: in vivo
[19] = Drug concentration at steady state in human at 400 to 800 mg, po QD used as formulation with ritonavir measured after 24 hrs; format: ADME, organism-based; conditions: in vivo, read-out: Css
[20] = Ratio of drug concentration at steady state in human at 1250 mg, po QD after 24 hrs to IC50 for human BSEP overexpressed in Sf9 insect cells; format: ADME, organism-based; conditions: in vivo
[21] = AUC in human at 1250 mg, po QD after 24 hrs; format: ADME, organism-based; parameters: time < 24 hr, dose 1250 mg, route oral; conditions: in vivo
[22] = Drug concentration at steady state in human at 1250 mg, po QD after 24 hrs; format: ADME, organism-based; conditions: in vivo, read-out: Css
[23] = Ratio of drug concentration at steady state in human at 125 to 500 mg, po QID after 6 hrs to IC50 for human BSEP overexpressed in Sf9 insect cells; format: ADME, organism-based; conditions: in vivo
[24] = AUC in human at 125 to 500 mg, po QID after 6 hrs; format: ADME, organism-based; conditions: in vivo
[25] = Drug concentration at steady state in human at 125 to 500 mg, po QID after 6 hrs; format: ADME, organism-based; conditions: in vivo, read-out: Css
[26] = Drug concentration at steady state in human at 15 to 60 mg, po QD after 24 hrs; format: ADME, organism-based; conditions: in vivo, read-out: Css
[27] = Ratio of drug concentration at steady state in human at 15 to 60 mg, po QD after 24 hrs to IC50 for human MRP4 overexpressed in Sf9 insect cells; format: ADME, organism-based; conditions: in vivo
[28] = AUC in human at 15 to 60 mg, po QD after 24 hrs; format: ADME, organism-based; conditions: in vivo
[29] = Ratio of drug concentration at steady state in human at 15 to 60 mg, po QD after 24 hrs to IC50 for human BSEP overexpressed in Sf9 insect cells; format: ADME, organism-based; conditions: in vivo

Compound: CO[C@H]1/C=C/O[C@@]2(C)Oc3c(C)c(O)c4c(O)c(c(/C=N/N5CCN(C6CCCC6)CC5)c(O)c4c3C2=O)NC(=O)/C(C)=C\C=C\[C@H](C)[C@H](O)[C@@H](C)[C@@H](O)[C@@H](C)[C@H](OC(C)=O)[C@@H]1C [RIFAPENTINE]
Ratio [1]: 0.131
IC50 (Bile salt export pump): 9.91 µM
IC50 [2]: 80.9 µM
Ratio [3]: 0.288
AUC at 84 h [4]: 395 µM·h
IC50 [5]: 35.9 µM
Ratio [6]: 0.474
IC50 [7]: 16.3 µM
concentration at 84 h [8]: 4.7 µM
Ratio [9]: 0.058

Compound: Cc1cccc(C)c1OCC(=O)N[C@@H](Cc1ccccc1)[C@@H](O)C[C@H](Cc1ccccc1)NC(=O)[C@H](C(C)C)N1CCCNC1=O [LOPINAVIR]
Ratio [15]: 0.314
IC50 [2]: 21 µM
AUC at 24 h [16]: 158 µM·h
Ratio [17]: 0.14
IC50 [5]: 47 µM
IC50 [7]: > 133 µM
Ratio [18]: 0.381
concentration at 24 h [19]: 6.6 µM

Compound: CS(=O)(=O)CCNCc1ccc(-c2ccc3ncnc(Nc4ccc(OCc5cccc(F)c5)c(Cl)c4)c3c2)o1.Cc1ccc(S(=O)(=O)O)cc1
IC50 [2]: > 133 µM
Ratio [20]: 0.4
AUC at 24 h [21]: 62.3 µM·h
IC50 [5]: > 133 µM
concentration at 24 h [22]: 2.6 µM
IC50 [7]: > 133 µM

Further lines, with some results ahead:

AUC at 8 h [10]: 179 µM·h
IC50 [2]: 85 µM
Ratio [11]: 0.263
concentration at 8 h [12]: 22.3 µM
IC50 [5]: 16.7 µM
Ratio [14]: 1.338
Compound: Cc1ccc(C(=O)c2cc(O)c(O)c([N+](=O)[O-])c2)cc1 [TOLCAPONE]
IC50 (Bile salt export pump): 36.6 µM
Ratio [13]: 0.611

IC50 [2]: > 133 µM
IC50 [5]: > 133 µM
IC50 [7]: > 133 µM
AUC at 6 h [24]: 168 µM·h
concentration at 6 h [25]: 28.1 µM
Compound: Cc1onc(-c2c(Cl)cccc2Cl)c1C(=O)N[C@@H]1C(=O)N2[C@@H]1SC(C)(C)[C@@H]2C(=O)O [DICLOXACILLIN]
Ratio [23]: 0.498
IC50 (Bile salt export pump): 56.4 µM

concentration at 24 h [26]: 0.935 µM
IC50 [2]: > 133 µM
Ratio [27]: 0.019
IC50 [5]: 49.5 µM
AUC at 24 h [28]: 22.4 µM·h
Compound: CCc1ccc(CCOc2ccc(CC3SC(=O)NC3=O)cc2)nc1 (stereo not given) [PIOGLITAZONE]
Ratio [29]: 2.338
